Read-outs that look alike come from different tables or passages of the source.
What was measured:
[1] = Body weight of tumor-bearing mice (Example 1); details: roflumilast 4 mg/kg i.p., sodium ascorbate 1.5 g/kg i.v., every three days, 5 administrations; compared with the control
Experimental: (§1) (2) After tumor formation, the mice were divided into four experimental groups, namely, a blank control, a roflumilast group, a sodium ascorbate group, and a roflumilast+sodium ascorbate group. The mice in the roflumilast+sodium ascorbate group were intraperitoneally injected with roflumilast at 4 mg/kg and intravenously injected with sodium ascorbate at 1.5 g/kg every three days, for 5 administrations. At the same time, the roflumilast group and the sodium ascorbate group were separately injected with roflumilast and sodium ascorbate at the same dose in the same way; and normal saline was injected at the same dose in the blank control. The day of the first injection was taken as Day 1, and then the mice were tested and recorded in terms of body weight and tumor size: tumor volume (mm^3)=length (L) ×width (W) 2/2. Luciferin fluorescence imaging was conducted on tumors. That is, a 1 mg/mL D-luciferin potassium aqueous solution was formulated; each mouse was intraperitoneally injected with 100 μL of the D-luciferin potassium aqueous solution, and 10 minutes after injection, was subjected to luciferin fluorescence imaging with a small animal in vivo imager (Model: IVIS Lumina XRMS Series III).

[2] = mouse, in vivo
Experimental: as §1

Compound | effect on the body weight of mice [1] | effect on the body weight of mice [2]
O=C1O[C@H]([C@@H](O)CO)C([O-])=C1O.[Na+] [sodium ascorbate] | no effect on the body weight of mice | 
O=C(Nc1c(Cl)cncc1Cl)c1ccc(OC(F)F)c(OCC2CC2)c1 [roflumilast] |  | no effect on the body weight of mice
